# Experimental data as given in patent US8034804B2 (N.V. Organon, priority 2001, dated 2011).
# What was measured:
# AMPA receptor = assay: Patch clamp whole cell electrophysiology: glutamate-evoked steady state current in cultured hippocampal neurons; assay type: cell-based; details: 10 μM compound in extracellular solution; 0.5 mM glutamate; rat hippocampal neurons voltage clamped at −60 mV
# Text: The (pyrido/thieno)-[f]-oxazepin-5-one derivatives of the invention are AMPA receptor positive modulators, as can be determined by an increase in steady state current induced by application of glutamate in a conventional whole cell patch clamp method when a (pyrido/thieno)-[f]-oxazepin-5-one of the invention is present (see Example 10 and Table I). The compounds may be used in the treatment of neurological and psychiatric diseases where an enhancement of synaptic responses mediated by AMPA receptors is required, such as neurodegenerative disorders, cognitive or memory dysfunction, memory and learning disorders such as can result from ageing, attention disorder, trauma, stroke, epilepsy, Alzheimer's disease, depression, schizophrenia, psychotic disorders, sexual dysfunctions, autism, or a disorder or disease resulting from neurotic agents or substance abuse, and alcohol intoxication.
# Hippocampal neuronal cultures were prepared from embryonic or 1-3 day old Sprague-Dawley rats which were decapitated and the heads immediately placed in ice cold HBS (HEPES Buffered Solution: 130 mM NaCl, 5.4 mM KCl, 10 mM HEPES, 1.0 mM MgCl2, 1.8 CaCl2, 25 mM glucose, adjusted to pH 7.4). The whole brain was excised and placed on pre-sterilised filter paper, soaked in HBS and the cerebellum was removed. The brain was chopped and an enzyme solution (0.5 mg/ml protease X and 0.5 mg/ml protease in HBS) was added and subsequently left for 40 minutes at room temperature to digest before trituration. Cells were resuspended and then counted to give a final concentration of 1.5×10^6 per ml. Cells were aliquoted onto poly-D-lysine- and Matrigel®-treated coverslips and left to incubate at 37° C. for 1-2 hours. When incubation was complete, 1 ml of growth medium was added to each well containing a coverslip and the cells were returned to the incubator. After 3-5 days the mitotic inhibitor cytosine arabinoside (5 μM) was added and the cells returned to the incubator until required.
# The whole cell configuration of the patch clamp technique (Hamill et al., Pflügers Arch. 1981, 39, 85-100) was used to measure glutamate-evoked currents from postnatal hippocampal neurons maintained in culture for 4-7 days. A glass coverslip containing the culture was transferred to the recording chamber (Warner Instrument Corp., Hamden, Conn.) mounted on the stage of an inverted microscope (Nikon, Kingston, UK). The recording chamber contained 1-2 ml extracellular solution (145 mM NaCl, 5.4 mM KCl, 10 mM HEPES, 0.8 mM MgCl2, 1.8 CaCl2, 10 mM glucose and 30 mM sucrose, adjusted to pH 7.4 with 1 M NaOH) and was constantly perfused at a rate of 1 ml/min. Recordings were performed at room temperature (20-22° C.) using an Axopatch 200B amplifier (Axon Instruments Ltd., Foster City, Calif.). Data acquisition and analysis was performed using Signal software (Cambridge Electronic Design Ltd., Cambridge, UK). Pipettes were manufactured from GC120F-10 glass (Harvard Apparatus, Edenbridge UK) using a model P-87 electrode puller (Sutter Instruments Co., Novarto, Calif.). The patch electrodes had typical resistances of between 3-5 MΩ when filled with intracellular solution (140 mM potassium gluconate, 20 mM HEPES, 1.1 mM EGTA, 5 mM phosphocreatine, 3 mM ATP, 0.3 mM GTP, 0.1 mM CaCl2, 5 mM MgCl2, adjusted to pH 7.4 with 1 M KOH).
# Cells were voltage clamped at a holding potential of −60 mV and glutamate (0.5 mM) was applied using a 12 channel semi-rapid drug application device (DAD-12. Digitimer Ltd., Welwyn Garden city, UK). The agonist glutamate was applied for 1 s every 30 s. […] Between applications saline flowed to clear any dead volume in the system. For each application steady-state currents were plotted from the difference in baseline and steady state current and averaged over 300 ms.
# Two solutions of the compound in extracellular solution were made up, one with glutamate and one without. […]
# Mice = assay: Inhibition of amphetamine-induced hyperlocomotion; assay type: in vivo, mouse; details: drug sc 30 minutes before 1.5 mg/kg d-amphetamine sulphate sc, locomotor activity measured for 60 minutes
# Protocol: Mice were injected sc with drug treatment or vehicle control. 30 Minutes later mice were injected sc with 1.5 mg/kg d-amphetamine sulphate or saline and immediately placed in infra red locomotor boxes where locomotor activity (long duration beam breaks of two adjacent beams) and stereotypic behaviour (repetitive short-duration beam breaks) were measured for a period of 60 minutes. The experiment was analysed using a 3-Way ANOVA with experimental session, infra red locomotor boxes and treatment as factors, and in the case of treatment, significant effects were followed up using a Tukey (HSD) test.
# Rats = assay: Differential reinforcement of low rates of responding, 72 seconds (DRL72); assay type: in vivo, rat; details: intraperitoneal route 30 minutes before 60 minute test session
# Protocol: Rats are pretrained in a standard operant chamber to perform a DRL72 procedure according to Andrews et al (Andrews J S, Jansen J H M, Linders S, Princen A, Drinkenburg WHIM, Coenders C J H and Vossen J H M (1994). Effects of imipramine and mirtazapine on operant performance in rats. Drug Development Research, 32, 58-66). The test session lasts for 60 minutes with no limit to the number of trials. Each trial begins with the stimulus light on above the active lever. A response on the lever only results in delivery of a pellet if 72 seconds has elapsed. A response on the lever before 72 seconds has elapsed resets the timer and is not rewarded. The number of pellets earned and the number of lever presses is recorded and used to calculate an efficiency score. Test compounds are administered via the intraperitoneal route 30 minutes before the start of the test session. Antidepressants increase the number of pellets earned and decrease the number of lever presses.
Compound,% Increase in steady state current at 10 μM (AMPA receptor),Inhibition of amphetamine induced hyperlocomotion (Mice),"DRL72 operant performance (pellets earned, lever presses): antidepressant like profile (Rats)"
"Cc1ccc2c(n1)OCC1CCCN1C2=O.Cl [Example 3, (S)-8-Methyl-2,3,11,11a-tetrahydro-1H,5H-pyrrolo[2,1-c]pyrido[3,2-f][1,4]oxazepine-5-one Hydrochloride Salt]",12%,–,–
"O=C1c2ccc(Cl)nc2OC[C@@H]2CCCN12 [Example 4A, (S)-8-Chloro-2,3,11,11a-tetrahydro-1H,5H-pyrrolo[2,1-c]pyrido[3,2-f][1,4]oxazepine-5-one]",16%,–,–
"O=C1c2ccc(Cl)nc2OC[C@H]2CCCN12 [Example 4B, (R)-8-Chloro-2,3,11,11a-tetrahydro-1H,5H-pyrrolo[2,1-c]pyrido[3,2-f][1,4]oxazepine-5-one]",29%,–,–
"O=C1c2cc(Cl)sc2OC[C@H]2CCCN12 [Example 6A, (R)-7-Chloro-2,3,10,10a-tetrahydro-1H,5H-pyrrolo[2,1-c]thieno[3,2-f][1,4]oxazepine-5-one]",20%,–,–
"O=C1c2ccc(C(F)(F)F)nc2OC[C@H]2CCCN12 [Example 2C, (R)-8-trifluoromethyl-2,3,11,11a-tetrahydro-1H,5H-pyrrolo[2,1-c]pyrido[3,2-f][1,4]-oxazepine-5-one]",19%,–,–
O=C1c2sccc2OC[C@@H]2CCCN12 [Example 1],32%,inhibited amphetamine induced hyperlocomotion,–
"(S)-2,3,11,11a-tetrahydro-1H,5H-pyrrolo[2,1-c]pyrido[3,2-f][1,4]oxazepine-5-one",22%,inhibited amphetamine induced hyperlocomotion,antidepressant like profile
"O=C1c2ccc(C(F)(F)F)nc2OC[C@@H]2CCCN12 [Example 2B, (S)-8-trifluoromethyl-2,3,11,11a-tetrahydro-1H,5H-pyrrolo[2,1-c]pyrido[3,2-f][1,4]-oxazepine-5-one]",21%,–,–
"(+)-6,6a,7,8,9,10-hexahydro-12H-pyrido[2,1-c]pyrido[3,2-f][1,4]oxazepine-12-one [Example 4D]",13%,–,–
"O=C1c2cc(Cl)sc2OC[C@@H]2CCCN12 [Example 5, (S)-7-Chloro-2,3,10,10a-tetrahydro-1H,5H-pyrrolo[2,1-c]thieno[3,2-f][1,4]oxazepine-5-one]",16%,–,–
"(S)-8-Methoxy-2,3,11,11a-tetrahydro-1H,5H-pyrrolo[2,1-c]Pyrido[3,2-f][1,4]oxazepine-5-one [Example 7]",22%,–,–
